The source made the active and inactive calls.
Assays:
[1] = biological target: T1, Calpain-2 catalytic subunit (Sus scrofa, UniProt P43367); test: pig calpain II inhibitor potency, dose response, biochemical, fluorogenic peptide substrate (AID 1420); type: functional
T1 sequence (P43367 whole entry): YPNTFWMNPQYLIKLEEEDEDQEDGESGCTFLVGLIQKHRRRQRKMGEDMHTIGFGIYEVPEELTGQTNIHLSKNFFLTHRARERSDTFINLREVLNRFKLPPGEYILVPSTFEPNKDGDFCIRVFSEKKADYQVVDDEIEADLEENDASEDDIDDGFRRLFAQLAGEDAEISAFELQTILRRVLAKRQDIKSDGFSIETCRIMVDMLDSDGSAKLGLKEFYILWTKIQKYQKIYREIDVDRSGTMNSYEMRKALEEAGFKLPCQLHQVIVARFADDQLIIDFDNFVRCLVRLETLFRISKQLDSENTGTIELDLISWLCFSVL

[2] = Luminescence Cell-Based Dose Retest to Confirm Inhibitors of Cancer Stem Cells. [Related pubchem assays (depositor defined):AID2717, AID2721]; type: functional; settings: Homo sapiens
[3] = biological target: Heat shock protein HSP 90-alpha (Homo sapiens, UniProt P07900); type: functional, organism-based
[4] = biological target: T2, Replicative DNA helicase DnaB (Mycobacterium tuberculosis, UniProt P9WMR3); test: DnaB intein splicing inhibitors, dose response, biochemical, cell-free fluorescence (AID 449749); type: functional
T2 sequence (P9WMR3 whole entry): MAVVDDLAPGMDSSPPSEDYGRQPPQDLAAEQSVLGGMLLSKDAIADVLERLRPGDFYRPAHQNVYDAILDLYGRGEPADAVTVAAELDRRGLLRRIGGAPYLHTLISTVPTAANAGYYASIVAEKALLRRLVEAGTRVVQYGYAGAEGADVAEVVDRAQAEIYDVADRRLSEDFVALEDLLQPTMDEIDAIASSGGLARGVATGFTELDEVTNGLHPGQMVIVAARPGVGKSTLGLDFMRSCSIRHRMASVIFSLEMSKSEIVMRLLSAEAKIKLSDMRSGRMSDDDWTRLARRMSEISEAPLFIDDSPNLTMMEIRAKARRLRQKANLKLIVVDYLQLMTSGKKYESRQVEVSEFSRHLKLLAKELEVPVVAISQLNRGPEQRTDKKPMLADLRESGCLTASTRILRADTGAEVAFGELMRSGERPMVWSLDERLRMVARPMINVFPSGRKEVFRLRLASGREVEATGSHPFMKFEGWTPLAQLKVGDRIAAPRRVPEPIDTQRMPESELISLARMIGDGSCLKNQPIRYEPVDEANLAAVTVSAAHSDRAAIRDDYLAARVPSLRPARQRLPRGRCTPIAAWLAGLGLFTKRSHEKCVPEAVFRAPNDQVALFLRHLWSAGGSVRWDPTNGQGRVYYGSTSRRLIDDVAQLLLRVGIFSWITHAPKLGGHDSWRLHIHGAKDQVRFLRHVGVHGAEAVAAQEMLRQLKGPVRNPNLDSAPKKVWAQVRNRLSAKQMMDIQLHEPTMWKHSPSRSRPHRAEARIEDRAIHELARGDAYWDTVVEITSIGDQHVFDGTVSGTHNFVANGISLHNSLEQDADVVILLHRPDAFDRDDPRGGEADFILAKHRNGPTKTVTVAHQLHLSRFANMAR

Protein RecA = biological target: T3, Protein RecA (Mycobacterium tuberculosis, UniProt P9WHJ3); test: Fluorescence Cell-Free Homogeneous Dose Retest to Identify Inhibitors of RecA-Intein Splicing Activity. [Related pubchem assays (depositor defined):AID2097, AID2223, AID489010, AID492950]; type: functional
T3 sequence (P9WHJ3 whole entry): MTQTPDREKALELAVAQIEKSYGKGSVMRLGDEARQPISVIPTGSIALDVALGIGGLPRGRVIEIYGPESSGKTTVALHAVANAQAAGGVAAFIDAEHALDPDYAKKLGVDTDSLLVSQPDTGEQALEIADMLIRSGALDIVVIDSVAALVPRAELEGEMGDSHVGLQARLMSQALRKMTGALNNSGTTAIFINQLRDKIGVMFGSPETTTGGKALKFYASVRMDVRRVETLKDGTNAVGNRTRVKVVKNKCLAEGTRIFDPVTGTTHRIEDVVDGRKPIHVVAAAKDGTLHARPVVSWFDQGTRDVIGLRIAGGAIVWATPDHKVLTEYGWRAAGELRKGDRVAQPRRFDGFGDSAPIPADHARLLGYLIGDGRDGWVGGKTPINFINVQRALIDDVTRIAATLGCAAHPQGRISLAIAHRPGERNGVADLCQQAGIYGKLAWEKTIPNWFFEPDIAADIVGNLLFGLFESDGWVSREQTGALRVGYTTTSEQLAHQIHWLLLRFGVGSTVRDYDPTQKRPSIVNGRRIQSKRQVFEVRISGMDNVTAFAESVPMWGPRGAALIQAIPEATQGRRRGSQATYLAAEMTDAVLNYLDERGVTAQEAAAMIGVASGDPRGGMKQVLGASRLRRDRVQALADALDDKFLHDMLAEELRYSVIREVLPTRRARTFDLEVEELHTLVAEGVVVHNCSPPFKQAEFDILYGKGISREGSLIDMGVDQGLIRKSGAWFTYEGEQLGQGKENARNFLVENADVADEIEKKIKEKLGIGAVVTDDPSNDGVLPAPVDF

Cytochrome P450 2D6 = Cytochrome P450 2D6 (Homo sapiens, UniProt P10635);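 note: CYP2D6 member of a cytochrome P450 panel assay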
Cytochrome P450 2C9 = Cytochrome P450 2C9 (Homo sapiens, UniProt P11712)
[5] = HEp-2 cell cytotoxicity, dose response, cytotoxicity control for RSV inhibitor project, HTS (AID 2410); type: functional; settings: human respiratory syncytial virus
Leucine aminopeptidase = biological target: T4, Leucine aminopeptidase (Plasmodium falciparum 3D7, UniProt Q8IL11); test: P. falciparum M17LAP inhibitors, primary screen, biochemical, fluorogenic H-Leu-NHMec substrate, 1536-well (AID 1619); type: functional
T4 sequence (Q8IL11 whole entry): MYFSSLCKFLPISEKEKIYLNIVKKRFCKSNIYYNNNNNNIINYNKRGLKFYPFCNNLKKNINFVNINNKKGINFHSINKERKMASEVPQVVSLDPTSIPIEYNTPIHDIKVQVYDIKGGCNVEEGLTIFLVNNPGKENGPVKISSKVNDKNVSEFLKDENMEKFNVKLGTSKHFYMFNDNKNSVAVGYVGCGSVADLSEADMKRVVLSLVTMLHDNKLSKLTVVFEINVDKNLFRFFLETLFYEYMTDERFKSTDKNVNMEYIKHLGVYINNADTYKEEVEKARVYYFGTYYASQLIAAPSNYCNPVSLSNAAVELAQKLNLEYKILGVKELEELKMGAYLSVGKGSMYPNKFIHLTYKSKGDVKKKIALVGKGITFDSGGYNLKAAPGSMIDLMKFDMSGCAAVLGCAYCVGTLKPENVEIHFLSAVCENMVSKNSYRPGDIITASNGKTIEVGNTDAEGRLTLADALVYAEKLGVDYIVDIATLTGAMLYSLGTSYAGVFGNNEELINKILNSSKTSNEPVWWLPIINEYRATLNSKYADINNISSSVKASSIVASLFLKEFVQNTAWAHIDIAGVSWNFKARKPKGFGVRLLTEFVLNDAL

Cytochrome P450 1A2 = biological target: T5, Cytochrome P450 1A2 (Homo sapiens, UniProt P05177);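 note: PubChem cytochrome P450 panel assay, CYP1A2 panel member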
T5 sequence (P05177 whole entry): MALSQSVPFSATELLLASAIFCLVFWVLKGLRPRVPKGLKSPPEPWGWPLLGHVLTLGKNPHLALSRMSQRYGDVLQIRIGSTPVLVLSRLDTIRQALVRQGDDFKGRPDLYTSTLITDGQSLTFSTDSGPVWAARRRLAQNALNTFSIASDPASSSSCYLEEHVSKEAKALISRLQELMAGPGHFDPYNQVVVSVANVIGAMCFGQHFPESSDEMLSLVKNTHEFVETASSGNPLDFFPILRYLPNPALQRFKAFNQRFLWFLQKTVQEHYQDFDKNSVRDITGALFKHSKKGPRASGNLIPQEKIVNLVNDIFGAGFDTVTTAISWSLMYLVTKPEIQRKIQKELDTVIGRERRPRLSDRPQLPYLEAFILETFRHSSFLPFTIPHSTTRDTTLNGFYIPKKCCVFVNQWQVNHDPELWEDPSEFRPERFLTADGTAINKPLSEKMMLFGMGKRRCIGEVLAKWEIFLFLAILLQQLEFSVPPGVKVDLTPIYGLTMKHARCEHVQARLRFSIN

Chain of Cytochrome P450 2C9 (P11712 whole entry): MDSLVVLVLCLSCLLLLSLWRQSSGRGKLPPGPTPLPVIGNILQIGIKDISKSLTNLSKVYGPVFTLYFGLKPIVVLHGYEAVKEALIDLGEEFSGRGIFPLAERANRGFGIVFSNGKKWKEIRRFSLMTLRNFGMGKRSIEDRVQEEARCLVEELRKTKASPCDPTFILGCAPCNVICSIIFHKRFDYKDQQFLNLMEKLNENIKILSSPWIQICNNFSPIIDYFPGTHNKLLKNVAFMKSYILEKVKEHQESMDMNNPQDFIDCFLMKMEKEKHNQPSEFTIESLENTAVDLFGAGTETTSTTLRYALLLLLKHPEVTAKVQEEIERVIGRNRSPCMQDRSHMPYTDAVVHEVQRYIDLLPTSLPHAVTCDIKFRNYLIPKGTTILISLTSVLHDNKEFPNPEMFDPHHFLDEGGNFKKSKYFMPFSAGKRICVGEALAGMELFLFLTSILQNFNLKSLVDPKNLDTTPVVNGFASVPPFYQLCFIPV
Chain of Cytochrome P450 2D6 (P10635 whole entry): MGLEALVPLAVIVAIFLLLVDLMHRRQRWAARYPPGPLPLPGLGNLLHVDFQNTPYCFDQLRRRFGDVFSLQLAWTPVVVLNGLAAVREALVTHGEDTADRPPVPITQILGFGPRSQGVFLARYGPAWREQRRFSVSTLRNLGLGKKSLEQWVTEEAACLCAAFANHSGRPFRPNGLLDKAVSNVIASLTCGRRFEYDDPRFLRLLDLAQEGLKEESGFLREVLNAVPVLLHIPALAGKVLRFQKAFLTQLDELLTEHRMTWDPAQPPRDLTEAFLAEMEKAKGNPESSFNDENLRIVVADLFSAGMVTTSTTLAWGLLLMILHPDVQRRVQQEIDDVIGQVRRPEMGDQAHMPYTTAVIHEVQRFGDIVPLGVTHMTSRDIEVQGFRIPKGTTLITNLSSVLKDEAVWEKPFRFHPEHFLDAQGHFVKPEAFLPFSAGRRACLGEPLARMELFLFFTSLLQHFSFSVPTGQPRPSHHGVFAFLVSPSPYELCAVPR

O=C(Nc1nc(-c2ccc(Cl)cc2)cs1)C1CCCO1 (configuration not stated)
IC50 [1]: 19.1 µM (not active)

Cc1cc(NC(=O)CSc2nnc(-c3ccncc3)n2N)ccc1Br
IC50 [1]: > 50 µM (not active)

COc1ccc2sc(-c3ccccc3OC)c(-c3ccc(O)cc3)c2c1
AC50 [2]: 4.27 µM (active) | AC50 [3]: 5.35 µM (active)

COc1ccc(NC(=O)c2ccc(=O)oc2)cc1
IC50 [1]: 11.5 µM (not active)

O=c1oc2cc(Oc3c([N+](=O)[O-])cc(C(F)(F)F)cc3[N+](=O)[O-])ccc2c2c1CCCC2
AC50 [4]: > 380 µM (inactive) | EC50 (Protein RecA): 1.55 µM (active) | AC50 (Cytochrome P450 2D6): 11.2 µM (inconclusive) | AC50 (Cytochrome P450 2C9): inconclusive

CCOc1ccc(N2C(=O)/C(=C\c3ccccc3OC)S(=O)(=O)C2c2cccc([N+](=O)[O-])c2)cc1 (configuration not stated)
AC50 [3]: 26.2 µM (active)

COc1cc2c(cc1OC)C(C)N(C(=O)c1cc3ccccc3o1)CC2 (configuration not stated)
IC50 (cells): 39.6 µM (active) | CC50 [5]: 17.7 µM (active)

O=C(CCOc1ccccc1)Nc1ccc(S(=O)(=O)N2CCCC2)cc1
IC50 [1]: 26.4 µM (not active)

COCC(=O)n1nc(NCc2ccc(OC)cc2)nc1NCc1ccc(OC)cc1
AC50 [3]: 8.12 µM (active)

Cc1cc(O)nc(SCC(=O)Nc2ccc(F)cc2)c1C#N
IC50 (Leucine aminopeptidase): 4.1 µM (active)

Cc1c(Br)cc(C(=O)NC2CCCCC2)c(C)c1C
AC50 (Cytochrome P450 1A2): 3.55 µM (inconclusive) | AC50 (Cytochrome P450 2C9): inconclusive
